Measurements published in US20070036776A1, “Bacterial signaling molecules that down-regulate pathogenic bacterial virulence properties” (priority 2004, published 2007).

Tested on: human peripheral blood mononuclear cells (PBMCs)
Format: cell-based

Row | Substance | induction of T cell proliferation | concentration of maximum stimulation [ng/mL] | half maximal proliferation
1 | staphylococcal superantigen-like protein 11 [SSL11] | not able to induce |  | 
2 | toxic shock syndrome toxin-1 [TSST-1] |  | 50 | approximately 500 pg/mL
